Data: patent US10125356B2, “Enzymatic methods and enzymes” (Givaudan SA, priority 2007, dated 2018)

What was measured:
[1] = tested on: K411 peptidase (SEQ ID NO: 4); test: Release of 3-sulfanyl-3-methyl-hexanol from cys-gly-conjugate by clear lysate of recombinant E. coli expressing K411 peptidase, monobromobimane fluorescence test; assay type: biochemical, Corynebacterium jeikeium K411; conditions: conjugate 1 mM
Method: (§1) Samples of each fraction were incubated both with the β-lyase and with the cys-gly-conjugate at the same time, and the release of 3-sulfanyl-3-methyl-hexanol was determined by a fluorescence test specific for free SH groups: To this end the enzyme reaction was stopped by adding 0.5 volumes of NaCO3-buffer (0.1 M, pH 8.8) containing 0.5 mM monobromobimane, thus derivatising the free thiol-group. Fluorescence was then measured on a Flex-station (Molecular devices, Sunnyvale, Calif., USA) with an excitation wavelength of 385 nm and an emission wavelength of 480 nm.
(§2) 50 ml of recombinant E. coli culture formed as described in example 3 and 4 was harvested, resuspended in a final volume of 3 ml of phosphate buffer and then disrupted with ultrasonication. The soluble extract was cleared by centrifugation. Different dilutions of the resulting extract were incubated with the cys-gly-conjugate (1 mM) and in presence as well as in absence of an excess of the β-lyase. As a negative control, clear cell lysate from E. coli transformed with an empty vector, and cell lysates with the cys-gly-conjugate but no β-lyase were used.

[2] = tested on: Ax20 peptidase (SEQ ID NO: 2); test: Release of 3-sulfanyl-3-methyl-hexanol from cys-gly-conjugate by clear lysate of recombinant E. coli expressing Ax20 peptidase, monobromobimane fluorescence test; assay type: biochemical, Corynebacterium sp. Ax20; conditions: conjugate 1 mM
Method: as §1, §2

[3] = target: T1, β-lyase (Corynebacterium striatum, UniProt Q64HC5); test: Cleavage of conjugates by β-lyase, release of 3-sulfanyl-3-methyl-hexanol by gas chromatography; assay type: biochemical, Corynebacterium sp. Ax20; conditions: conjugate 1 mM incubated with β-lyase
T1 construct: made in house
T1 sequence (Q64HC5 whole entry): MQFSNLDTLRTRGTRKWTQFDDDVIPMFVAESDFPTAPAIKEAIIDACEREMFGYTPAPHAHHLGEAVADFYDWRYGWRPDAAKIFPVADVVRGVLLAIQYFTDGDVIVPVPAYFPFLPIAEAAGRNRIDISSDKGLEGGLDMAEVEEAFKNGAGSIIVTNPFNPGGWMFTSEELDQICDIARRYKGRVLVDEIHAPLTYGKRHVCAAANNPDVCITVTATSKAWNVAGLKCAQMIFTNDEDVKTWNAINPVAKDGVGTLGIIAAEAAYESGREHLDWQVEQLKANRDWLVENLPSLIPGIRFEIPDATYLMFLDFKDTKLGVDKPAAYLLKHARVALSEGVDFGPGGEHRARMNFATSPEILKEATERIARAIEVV
Method: The test compounds (Cys-conjugate (1 mM) or Cys-Gly-conjugate (1 mM)) were incubated with β-lyase.
(§3) Cleavage was measured by gas chromatography to determine the release of 3-sulfanyl-3-methyl-hexanol in mM.

[4] = tested on: Ax20 peptidase; test: Substrate specificity of recombinant Ax20 peptidase, cleavage by thin layer chromatography; assay type: biochemical, Corynebacterium sp. Ax20; conditions: 1 mM solution, 0.1 or 1 μg/ml peptidase, incubation 1 h
Method: The recombinant Ax20 peptidase formed as described in example 3 (affinity column purified tagged enzyme) was incubated with different compounds, in particular potential candidate dipeptide substrates, to characterize the substrate specificity and to identify substrates useful for screening assays (for example to screen for modulators including inhibitors).
The table below lists the tested compounds (mostly dipeptides indicated by their short names, e.g. ala-gly for an alanine-glycine dipeptide) and indicates whether they are cleaved by the peptidase. Z indicates a benzyloxy-carbonyl protecting group at the N-terminus of the peptide.
Cleavage was determined by thin layer chromatography.
Amounts are qualitative with (+++) indicating >80% cleavage of a 1 mM solution by 0.1 μg/ml peptidase during an incubation for 1 h; (++) indicates complete cleavage of a 1 mM solution by 1 μg/ml peptidase during an incubation for 1 h and (+) indicates partial cleavage (20-80%) of a 1 mM solution by 1 μg/ml peptidase during an incubation for 1 h and (−) indicating the absence of any cleavage.

[5] = tested on: C. sp. Ax 20 extract; test: Cleavage of conjugates by Corynebacterium sp. Ax20 cellular extract, release of 3-sulfanyl-3-methyl-hexanol by gas chromatography; assay type: biochemical; conditions: conjugate 1 mM incubated with C. sp. Ax 20 extract for 24 h
Method: The test compounds (cys-conjugate (1 mM) or cys-gly-conjugate (1 mM)) were incubated also with the wild-type strain Corynebacterium sp. Ax20 extract naturally containing the peptidase of SEQ ID NO:2. Corynebacterium sp. Ax20 cellular extract was prepared as described in example 1. The resulting extract was diluted to the same volume as the original culture has had when adjusted to an optical density of OD 4. The substrate was incubated with the extract for 24 h.
as §3

## CCCC(C)(CCO)SC[C@H](N)C(=O)NCC(=O)O (stereo in doubt) [Cys-gly-conjugate, (1-(2-hydroxyethyl)-1-methylbutyl)-L-cysteinyl-glycine]
[1]; K411 peptidase + β-lyase, clear cell lysate diluted 10 fold
  release of 3-sulfanyl-3-methyl-hexanol from the Cys-Gly-conjugate: 0.55 mM
[1]; K411 peptidase + β-lyase, clear cell lysate diluted 100 fold
  release of 3-sulfanyl-3-methyl-hexanol from the Cys-Gly-conjugate: 0.19 mM
[1]; K411 peptidase + β-lyase, clear cell lysate diluted 1000 fold
  release of 3-sulfanyl-3-methyl-hexanol from the Cys-Gly-conjugate: 0.03 mM
[1]; K411 peptidase w/o β-lyase, clear cell lysate diluted 10 fold
  release of 3-sulfanyl-3-methyl-hexanol from the Cys-Gly-conjugate: 0.10 mM
[1]; K411 peptidase w/o β-lyase, clear cell lysate diluted 100 fold
  release of 3-sulfanyl-3-methyl-hexanol from the Cys-Gly-conjugate: <0.01 mM
[1]; K411 peptidase w/o β-lyase, clear cell lysate diluted 1000 fold
  release of 3-sulfanyl-3-methyl-hexanol from the Cys-Gly-conjugate: <0.01 mM
[2]; Ax20 peptidase + β-lyase, clear cell lysate diluted 10 fold
  release of 3-sulfanyl-3-methyl-hexanol from the Cys-Gly-conjugate: 1.00 mM
[2]; Ax20 peptidase + β-lyase, clear cell lysate diluted 100 fold
  release of 3-sulfanyl-3-methyl-hexanol from the Cys-Gly-conjugate: 0.92 mM
[2]; Ax20 peptidase + β-lyase, clear cell lysate diluted 1000 fold
  release of 3-sulfanyl-3-methyl-hexanol from the Cys-Gly-conjugate: 0.46 mM
[2]; Ax20 peptidase w/o β-lyase, clear cell lysate diluted 10 fold
  release of 3-sulfanyl-3-methyl-hexanol from the Cys-Gly-conjugate: 0.10 mM
[2]; Ax20 peptidase w/o β-lyase, clear cell lysate diluted 100 fold
  release of 3-sulfanyl-3-methyl-hexanol from the Cys-Gly-conjugate: <0.01 mM
[2]; Ax20 peptidase w/o β-lyase, clear cell lysate diluted 1000 fold
  release of 3-sulfanyl-3-methyl-hexanol from the Cys-Gly-conjugate: <0.01 mM
[2]; Ax20 peptidase with histidine tag + β-lyase, clear cell lysate diluted 10 fold
  release of 3-sulfanyl-3-methyl-hexanol from the Cys-Gly-conjugate: 0.94 mM
[2]; Ax20 peptidase with histidine tag + β-lyase, clear cell lysate diluted 100 fold
  release of 3-sulfanyl-3-methyl-hexanol from the Cys-Gly-conjugate: 0.88 mM
[2]; Ax20 peptidase with histidine tag + β-lyase, clear cell lysate diluted 1000 fold
  release of 3-sulfanyl-3-methyl-hexanol from the Cys-Gly-conjugate: 0.36 mM
[3]
  release of 3-sulfanyl-3-methyl-hexanol from the conjugate: <0.03 mM
[4]
  Cleavage: +++ ((+++) indicating >80% cleavage of a 1 mM solution by 0.1 μg/ml peptidase during an incubation for 1 h)
[5]
  release of 3-sulfanyl-3-methyl-hexanol from the conjugate: 0.21 mM
